In patent publication US20190177279A1, “CARBOXYLIC ACID AROMATIC 1,2-CYCLOPROPYLAMIDES” (Bayer Pharma Aktiengesellschaft, priority 2017, published 2019):
Read-outs that look alike come from different tables or passages of the source. One block for each molecule: values may come before it.

Experiments:
[1] = due to metabolic liability; prior art; cited from earlier work
IL-6 secretion = assay: Bradykinin B1 receptor agonist-induced secretion of IL-6 in human IMR-90 cells; assay type: cell-based; details: 0.1 μM Lys-[Des-Arg9]Bradykinin and 0.1 μM Sar-[D-Phe8]-des-Arg9-Bradykinin, 5 hours
Text: (§1) Inhibitory Activity on Bradykinin B1 Receptor Agonist-Induced Secretion of IL-6 and IL-8 in Human IMR-90 Cells
(§2) The effect of the compound examples on secretion of the cytokine IL-6 and IL-8 was investigated in the human foetal lung fibroblast IMR-90 cell line. Here the induction of the cytokine secretion was induced by the Bradykinin B1 receptor agonists Lys-[Des-Arg9]Bradykinin (CAS 71800-36-7, Tocris Bioscience) and Sar-[D-Phe8]-des-Arg9-Bradykinin (CAS 126959-88-4, Tocris Bioscience) leading to the activation of the Bradykinin B1-driven signalling pathway. […]
(§3) IMR-90 cells were cultured in Eagle's Minimum Essential Medium (EMEM) containing 2 mM L-glutamine, 1 g/L glucose, 1.5 g/L NaHCO3, 1 mM sodium pyruvate and non-essential amino acids (ATCC, 30-2003™) supplemented with 10% FBS (Biochrom, 50615) and 50 U/mL Penicillin, 50 μg/mL Streptomycin (PAA, P11-010). […] The compound examples were serially diluted in 100% DMSO and evaluated at 8 different concentrations within the range of 3 nM and 10 μM and a final DMSO concentration of 0.4%. […] The amount of IL-6 and IL-8 in the supernatant was determined using the Human ProInflammatory Panel II (4-Plex) (MSD, K15025B) according to manufacturer's instruction. […] The cell viability was measured using the CellTiter-Glo Luminescent Assay (Promega, G7571) following the manufacturers protocol. […]

IL-8 secretion = assay: Bradykinin B1 receptor agonist-induced secretion of IL-8 in human IMR-90 cells; assay type: cell-based; details: 0.1 μM Lys-[Des-Arg9]Bradykinin and 0.1 μM Sar-[D-Phe8]-des-Arg9-Bradykinin, 5 hours
Text: as §1, §2, §3

human B1 receptor = molecular target: T1, human B1 receptor (Homo sapiens, UniProt P46663); assay: Calcium flux assay (FLIPR) with recombinant CHO-K1 cells expressing human B1 receptor; assay type: cell-based; details: agonist Lys-(Des-Arg)-Bradykinin
T1 construct: host or cells: CHO-K1
T1 sequence (P46663 1-353): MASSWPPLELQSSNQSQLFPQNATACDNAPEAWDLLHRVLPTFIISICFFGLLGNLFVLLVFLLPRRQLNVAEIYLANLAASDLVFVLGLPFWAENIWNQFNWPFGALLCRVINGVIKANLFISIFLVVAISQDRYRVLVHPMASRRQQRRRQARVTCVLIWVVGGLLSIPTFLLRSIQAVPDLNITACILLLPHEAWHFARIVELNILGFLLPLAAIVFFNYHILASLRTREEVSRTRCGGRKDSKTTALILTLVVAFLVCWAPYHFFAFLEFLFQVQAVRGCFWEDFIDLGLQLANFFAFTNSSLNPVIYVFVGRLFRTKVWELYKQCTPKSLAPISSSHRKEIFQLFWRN
Procedure: The potency to inhibit the Bradykinin B1 receptors was determined for the example compounds of this invention in a cell-based fluorescent calcium-mobilisation assay. The assay measures the ability of example compounds to inhibit Bradykinin B1 receptor agonist-induced increase of intracellular free Ca^2+ in the cell line expressing B1 receptor. Specifically, calcium indicator—loaded cells are pre-incubated in the absence or presence of different concentrations of example compounds followed by the stimulation with a selective B1 receptor agonist peptide. The change of the intracellular Ca^2+ concentration is monitored with a fluorescent plate reader FLIPR (Molecular Devices).
Calcium flux Assay (FLIPR) with recombinant cells for Bradykinin B1 receptor antagonist, either in the presence (hB1 IC50) or absence (hB1 free IC50) of 0.1% BSA in assay buffer
CHO-K1 cell line expressing human B1 receptor was purchased from Euroscreen (Gosselies, Belgium, with reference name hB1-D1). The cells were grown in Nutrient Mixture Ham's F12 (Sigma) containing 10% Foetal bovine serum (Sigma) and 400 μg/mL G418 (Sigma), 5 μg/mL puromycin (Sigma).
For the calcium flux assay, 80% confluent cells were detached from the culture vessels with Versene (Gibco), and seeded into 384-well plates (Cell binding Surface; Corning, N.Y.; #3683) at a density of 15,000 cells per well. Cells were seeded in a volume of 50 μL in medium without antibiotics and incubated overnight in a humidified atmosphere with 5% CO2 at 37° C. […] The calcium indicator loaded cells were incubated at 37° C. for 2 hrs. Extracellular dye was then removed and each well was filled with 45 μL of assay buffer. Cell plates were kept in dark until used. Example compounds were assayed at 8 concentrations in triplicate. Serial 10-fold dilutions in 100% DMSO were made at a 100-times higher concentration than the final concentration, and then diluted 1:10 in assay buffer. 5 μL of each diluted compound was added to the well of cell plates (yielding final concentration with 1% DMSO), and incubated for 30 min at 28° C. before the addition of B1 receptor agonist on the FLIPR instrument.
Agonist plates contained the agonist Lys-(Des-Arg)-Bradykinin (Bachem, Brackley) at 3.5×EC90 in assay buffer with 1% DMSO. The addition of agonist 20 μl per well to the assay plate was carried out on the FLIPR instrument while continuously monitoring Ca^2+-dependent fluorescence at 538 nm. A peptide antagonist Lys-(Des-Arg-Leu)-Bradykinin (Bachem, Brackley) at 20 µM was used to determine the full inhibition as control.
Peak fluorescence was used to determine the response to agonist obtained at each concentration of example compound by the following equation:
% Response=100*(RFU(example compound)−RFU(control)/(RFU(DMSO)−RFU(control)) • Control=full inhibition by the peptide antagonist Lys-(Des-Arg-Leu)-Bradykinin at 20 μM
The response values were plotted against the logarithm of the compound concentrations. The compounds were tested in triplicates per plate and mean values were plotted in Excel XLfit to determine IC50 values, percentage of maximal inhibition and the Hill slopes.

stimulated IMR-90 cells = assay: Cell viability, CellTiter-Glo Luminescent Assay; assay type: cell-based, human
Procedure: IMR-90 cells were cultured in Eagle's Minimum Essential Medium (EMEM) containing 2 mM L-glutamine, 1 g/L glucose, 1.5 g/L NaHCO3, 1 mM sodium pyruvate and non-essential amino acids (ATCC, 30-2003™) supplemented with 10% FBS (Biochrom, 50615) and 50 U/mL Penicillin, 50 μg/mL Streptomycin (PAA, P11-010). The assay was performed in EMEM and a cell density of […] IMR-90 cells/96-well. The compound examples were serially diluted in 100% DMSO and evaluated at 8 different concentrations within the range of 3 nM and 10 μM and a final DMSO concentration of 0.4%. The IMR-90 cells were incubated with the respective concentration of the compound for 30 min. […] The amount of IL-6 and IL-8 in the supernatant was determined using the Human ProInflammatory Panel II (4-Plex) (MSD, K15025B) according to manufacturer's instruction. […] Plates were washed three times with phosphate-buffered saline (PBS; 137 mM NaCl, 2.7 mM KCl, 6.5 mM Na2HP04, 1.7 mM KH2P04) containing 0.05% Tween-20 (Bio-Rad, 161-0781) and electrochemiluminescence detected using the MSD Sector Imager 6000 plate reader. The cell viability was measured using the CellTiter-Glo Luminescent Assay (Promega, G7571) following the manufacturers protocol. […] After incubation and shaking for 10 minutes luminescent signal was measured which was proportional to the amount of ATP present. […]

[2] = molecular target: T2, native human B1 receptors (Homo sapiens, UniProt P46663); assay: Calcium flux assay (FLIPR) with IMR-90 human foetal lung fibroblasts after IL-1 induction; assay type: cell-based; details: IMR-90 fibroblasts induced with human IL-1; 0.1% BSA in assay buffer; agonist Lys-(Des-Arg)-Bradykinin at EC90; read-out: hB1 IC50 IMR90
T2 construct: which express native human B1 receptors after induction with human IL-1; Coriell Institute; host or cells: IMR-90 human foetal lung fibroblasts, induced with human IL-1
T2 sequence (P46663 1-353): T1 sequence (P46663 1-353)
Procedure: Calcium Flux Assay (FLIPR) with Human Fibroblasts for Bradykinin B1 Receptor Antagonist (hB1 IMR-90 IC50)
The Calcium flux Assay was carried out utilising IMR-90 human foetal lung fibroblasts (American Type Culture Collection, Rockville, Md.; and Coriell Institute, Camden, N.J.), which express native human B1 receptors after induction with human IL-1[…].
The fibroblasts were cultured in complete growth media comprised of Dulbecco's modified Eagle's medium (DMEM; Sigma) containing 10% foetal bovine serum, 4 mM L-glutamine, and 1% nonessential amino acids. The cells were maintained in a humidified atmosphere with 5% CO2 at 37° C. and were sub-cultured at a ratio of 1:3, every other day.
For the assay, IMR-90 fibroblasts were harvested using TrypLE Express (GIBCO/Invitrogen) and seeded into 384-well plates (Corning Cellbinding Surface, Cat. 3683) at a density of 15000 cells/well. The following day, cells were treated with 0.35 ng/mL human IL-1[…] in 10% FBS/MEM for 3 h to up-regulate B1 receptors. Induced cells were loaded with fluorescent calcium indicator by incubation with 2.5 μM Fluo-4/AM (Invitrogen) at 37° C., 5% CO2 for 2 h in the presence of 2.5 mM probenecid in 1% FBS/MEM. Extracellular dye was removed by washing with assay buffer (2.5 mM probenecid and 0.1% BSA in 20 mM HEPES/HBSS without bicarbonate or phenol red, pH 7.5). Example compounds were assayed at 8 concentrations in triplicate. After addition of example compounds to the cell plate and incubation for 30 min at 28° C., the addition of B1 agonist Lys-(Des-Arg)-Bradykinin (Bachem, Brackley) at a final concentration of EC90 was carried out on the FLIPR instrument while continuously monitoring Ca^2+-dependent fluorescence at 538 nm. A peptide antagonist Lys-(Des-Arg-Leu)-Bradykinin (Bachem, Brackley) at 20 μM was used to determine the full inhibition as control. IC50 values were determined by the same way described for the FLIPR assay with recombinant cells.

[3] = prior art, Bioorg Med Chem Lett 2010; cited from earlier work
[4] = prior art, Bioorg Med Chem Lett 2010; cited from earlier work; remark: listed apart in the source
[5] = prior art, Bioorg Med Chem Lett 2010; cited from earlier work; remark: listed apart in the source
[6] = prior art, Bioorg Med Chem Lett 2010; cited from earlier work; remark: listed apart in the source
[7] = absence of 0.1% BSA in assay buffer, read-out: hB1 free IC50

SMILES: C[C@@H](NC(=O)C1(NC(=O)C(F)(F)F)CC1)c1ccc(-c2cccc(Cl)c2C(=O)O)cc1F [MK-0686]
- pharmacokinetic profile [1]: suboptimal

SMILES: O=C(O)c1cc(NC(=O)C2CC2c2cccc(Cl)c2)ccc1-c1cnn(C2CCC2)c1 (racemic) [Example 1, 5-({[2-(3-chlorophenyl)cyclopropyl]carbonyl}amino)-2-(1-cyclobutyl-1H-pyrazol-4-yl)benzoic acid]
- IC50 (IL-6 secretion): 99 nM
- IC50 (IL-8 secretion): 509 nM
- IC50 (human B1 receptor; [7]): 207 nM
- IC50 (human B1 receptor; presence of 0.1% BSA in assay buffer, read-out: hB1 IC50): 65 nM
- effect on the cell viability (stimulated IMR-90 cells): no effect

SMILES: C[C@@H]1CC[C@H](C)N1C(=O)c1ccc([C@@H](C)NC(=O)C2(NC(=O)c3cc(F)cc(C(F)(F)F)c3)CC2)c(F)c1
- human metabolic stability [3]: poor
- pharmacokinetic profile in rat [4]: reasonable
- penetration profile [5]: acceptable
- aqueous solubility [6]: reasonable

Now from value to molecule:

- IC50 (human B1 receptor; [7]): 1260 nM
- IC50 [2]: 4730 nM
SMILES: O=C(O)c1cc(NC(=O)C2CC2c2ccc(Cl)cc2)c(F)cc1-c1ccc(C(F)(F)F)nc1 (racemic) [Example 25, 5-({[2-(4-chlorophenyl)cyclopropyl]carbonyl}amino)-4-fluoro-2-[6-(trifluoromethyl)pyridin-3-yl]benzoic acid]

- IC50 (human B1 receptor; [7]): 1760 nM
- IC50 [2]: 3390 nM
SMILES: CC(C)(C)c1cnn(-c2ccc(NC(=O)C3CC3c3ccc(Cl)cc3)cc2C(=O)O)c1 (racemic) [Example 13, 2-(4-tert-Butyl-1H-pyrazol-1-yl)-5-({[2-(4-chlorophenyl)cyclopropyl]carbonyl}amino)benzoic acid]

- IC50 (human B1 receptor; [7]): 2420 nM
- IC50 [2]: 12000 nM
SMILES: Cc1ccc(-c2ccc(NC(=O)C3CC3c3ccc(Cl)cc3)cc2C(=O)O)cn1 (racemic) [Example 15, 5-({[2-(4-chlorophenyl)cyclopropyl]carbonyl}amino)-2-(6-methylpyridin-3-yl)benzoic acid]
